Patent publication US6608086B2, “Dihydropyridines and new uses thereof” (Synaptic Pharmaceutical Corporation, priority 1993, dated 2003)
Structures can show the parent of a compound that is named as a salt. Where two headings read alike, the source gives them in different places.

Assays:
[1] = target: T1, α1C Human Adrenergic Receptor (Homo sapiens, UniProt P35348); assay: Radioligand binding, [3H]prazosin, cloned human α1C adrenergic receptor
T1 construct: The entire coding region of α1C (1401 bp); expressed in transfected cells
T1 sequence (P35348 1-466): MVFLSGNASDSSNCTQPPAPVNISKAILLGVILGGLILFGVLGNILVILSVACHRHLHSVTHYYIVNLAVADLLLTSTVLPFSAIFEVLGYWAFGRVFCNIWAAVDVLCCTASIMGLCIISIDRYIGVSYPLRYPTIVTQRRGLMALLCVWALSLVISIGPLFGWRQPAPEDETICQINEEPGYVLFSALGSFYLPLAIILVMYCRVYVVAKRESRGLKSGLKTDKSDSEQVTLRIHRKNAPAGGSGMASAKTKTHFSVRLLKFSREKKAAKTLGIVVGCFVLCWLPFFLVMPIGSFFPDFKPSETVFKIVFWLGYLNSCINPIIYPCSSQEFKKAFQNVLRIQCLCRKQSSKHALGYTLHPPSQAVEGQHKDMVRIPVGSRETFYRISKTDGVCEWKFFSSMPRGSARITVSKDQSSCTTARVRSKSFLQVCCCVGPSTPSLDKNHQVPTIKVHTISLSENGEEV
Procedure, shortened: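 Read-out is filter-retained [3H]prazosin (0.5 nM) bound to membranes of LM(tk−) cells stably carrying the human α1C receptor. Incubation ran 20 min at 37° C. at pH 7.5, with 10 μM phentolamine marking nonspecific binding.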

α2A receptor = target: T2, α2A receptor (Homo sapiens, UniProt P08913); assay: Competition binding, [3H]rauwolscine, human α2A receptor
T2 construct: host or cells: LM(tk-) cells, line L-α2A
T2 sequence (P08913 1-465): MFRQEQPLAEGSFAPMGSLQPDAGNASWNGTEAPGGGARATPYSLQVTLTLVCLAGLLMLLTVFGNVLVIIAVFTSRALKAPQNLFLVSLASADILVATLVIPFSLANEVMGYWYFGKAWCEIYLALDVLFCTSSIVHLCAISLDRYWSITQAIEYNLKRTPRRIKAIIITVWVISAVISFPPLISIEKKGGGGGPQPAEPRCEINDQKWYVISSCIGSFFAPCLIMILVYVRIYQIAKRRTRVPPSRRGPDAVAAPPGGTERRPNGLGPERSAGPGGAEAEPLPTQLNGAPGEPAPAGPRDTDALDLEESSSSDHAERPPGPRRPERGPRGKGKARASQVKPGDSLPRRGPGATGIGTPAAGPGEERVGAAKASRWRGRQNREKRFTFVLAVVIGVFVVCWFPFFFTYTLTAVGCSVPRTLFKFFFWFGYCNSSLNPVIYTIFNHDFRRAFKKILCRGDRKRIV
From the text: The protocols for these experiments are given below.
α2 Human Adrenergic Receptors:
To determine the potency of […], antagonists at the α2 receptors, LM(tk−) cell lines stably transfected with the genes encoding the α2A, α2B, and α2C receptors were used. The cell line expressing the α2A receptor is designated L-α2A, and was deposited on Nov. […] The cell line expressing the α2B receptor is designated L-NGC-α2B, and was deposited on Oct. […] The cell line expressing the α2C receptor is designated L-α2C, and was deposited on Nov. […] Cell lysates were prepared as described above (see Radioligand Binding Assays), and suspended in 25 mM glycylglycine buffer (pH 7.6 at room temperature). Equilibrium competition binding assay were performed using [3H]rauwolscine (0.5 nM), and nonspecific binding was determined by incubation with 10 μM phentolamine. The bound radioligand was separated by filtration through GF/B filters using a cell harvester.

[2] = cloned human receptor in LM(tk-) cell membranes, SEM and n in lines below, read-out: pKi alpha-1 1c (converted)
[3] = [3H]rauwolscine, LM(tk-) cell line L-α2A, SEM and n in lines below, read-out: pKi alpha-2 2a (converted)
[4] = PKi alpha-1 1c, cloned human receptor, LM(tk-) cell membranes, mean
[5] = [3H]rauwolscine, human receptor, LM(tk-) cell lysates, mean, read-out: PKi alpha-2 2a (converted)
[6] = cloned human receptor, LM(tk-) cell membranes, mean, read-out: PKi alpha-1 1c (converted)

Structure (SMILES) | Ki (α2A receptor; [5]) | Ki [1, 6] | also measured
COC(=O)C1=C(C)NC(C)=C(C(=O)NCCCN2CCC(c3ccccc3)CC2)C1c1ccc([N+](=O)[O-])cc1 (single isomer, unassigned; (+)) [(+)-45, 1,4-Dihydro-3-methoxycarbonyl-2,6-dimethyl-4-(4-nitrophenyl)-5-{N-[3-(4-phenylpiperidin-1-yl)propyl]}carboxamidopyridine hydrochloride hemihydrate] |  |  | Ki [1, 2]: 9.33 nM; Ki (α2A receptor; [3]): 240 nM
COC(=O)C1=C(C)NC(C)=C(C(=O)NCCCN2CCC(c3ccccc3)CC2)C1c1ccc(C)cc1 (stereo not drawn) [Example 31, 1,4-Dihydro-3-methoxycarbonyl-2,6-dimethyl-4-(4-methylphenyl)-5-(N-(3-(4-phenylpiperidin-1-yl)propyl)carboxamido)pyridine] |  |  | Ki [1, 2]: 1.17 nM; Ki (α2A receptor; [3]): 158 nM
COc1cc2c(c(OC)c1)CCN(CCCNC(=O)C1=C(c3ccoc3)NC(C)=C(C(N)=O)C1c1ccc([N+](=O)[O-])cc1)C2.Cl.O (stereo not drawn) [Example 67] |  |  | pKi alpha-1 1c ([1]; cloned human receptor in LM(tk-) cell membranes, SEM and n in lines below): 6.48; pKi alpha-2 2a (α2A receptor; [3H]rauwolscine, LM(tk-) cell line L-α2A, SEM and n in lines below): 6.45
CNC(=O)C1=C(C)NC(C)=C(C(=O)NCCCN2CCC(c3ccccc3)(c3ccccc3)CC2)C1c1ccc2c(c1)OCCO2 (stereo not drawn) [Example 163] | 1170 nM |  | Ki [1, 4]: 18.6 nM
CCC1=C(C(N)=O)C(c2ccc([N+](=O)[O-])cc2)C(C(=O)NCCCN2CCC(C(=O)OC)(c3ccccc3)CC2)=C(CCCCN=[N+]=[N-])N1 (stereo not drawn) [Example 165, 2-(4-Azidobutyl)-3-{N-[3-(4-methoxycarbonyl-4-phenylpiperidin-1-yl)propyl]}carboxamido-5-carboxamido-6-ethyl-1,4-dihydro-4-(4-nitrophenyl)pyridine] | 3020 nM | 0.501 nM | 
CCC1=C(C(=O)NC)C(c2ccc([N+](=O)[O-])cc2)C(C(=O)NCCCN2CCC(c3ccccc3)(c3ccccc3)CC2)=C(CCCCN)N1 (stereo not drawn) [Example 172, 2-(4-Aminobutyl)-6-ethyl-1,4-dihydro-5-(N-methyl)carboxamido-4-(4-nitrophenyl)-3-{N-[3-(4,4-diphenylpiperidin-1-yl)propyl]}carboxamidopyridine] | 2340 nM |  | Ki [1, 4]: 2.82 nM
CCC1=C(C(=O)NC)C(c2ccc([N+](=O)[O-])cc2)C(C(=O)NCCCN2CCC(c3ccccc3)(c3ccccc3)CC2)=C(CCCCOC)N1 (stereo not drawn) [Example 173, 6-Ethyl-1,4-dihydro-2-(4-methoxybutyl)-5-(N-methyl)carboxamido-4-(4-nitrophenyl)-3-{N-[3-(4,4-diphenylpiperidin-1-yl)propyl]}carboxamidopyridine] | 269 nM |  | Ki [1, 4]: 3.98 nM
CCC1=C(C(=O)NC)C(c2ccc([N+](=O)[O-])cc2)C(C(=O)NCCCN2CCC(C(=O)OC)(c3ccccc3)CC2)=C(CCCCOC)N1 (stereo not drawn) [Example 174, 6-Ethyl-1,4-dihydro-2-(4-methoxybutyl)-3-{N-[3-(4-methoxycarbonyl-4-phenylpiperidin-1-yl)propyl]}carboxamido-5-(N-methyl)carboxamido-4-(4-nitrophenyl)pyridine] | 2000 nM | 4.07 nM | 
CC(=O)C1=C(C)NC(CCCCN)=C(C(=O)NCCCN2CCC(c3ccccc3)(c3ccccc3)CC2)C1c1ccc([N+](=O)[O-])cc1 (stereo not drawn) [Example 176, 5-Acetyl-2-(4-aminobutyl)-1,4-dihydro-6-methyl-4-(4-nitrophenyl)-3-{N-[3-(4,4-diphenylpiperidin-1-yl)propyl]}carboxamidopyridine] | 977 nM |  | Ki [1, 4]: 3.72 nM
COC(=O)C1(c2ccccc2)CCN(CCCNC(=O)C2=C(CCCCN)NC(C)=C(C(C)=O)C2c2ccc([N+](=O)[O-])cc2)CC1 (stereo not drawn) [Example 178, 5-Acetyl-2-(4-aminobutyl)-1,4-dihydro-3-{N-[3-(4-methoxycarbonyl-4-phenylpiperidin-1-yl)propyl]}carboxamido-6-methyl-4-(4-nitrophenyl) pyridine] | 912 nM | 2.57 nM | 
CCC1=C(C(=O)NC)C(c2ccc([N+](=O)[O-])cc2)C(C(=O)NCCCN2CCC(C(=O)OC)(c3ccccc3)CC2)=C(CC)N1 (stereo not drawn) [Example 179, 2,6-Diethyl-1,4-dihydro-3-{N-[3-(4-methoxycarbonyl-4-phenyl-piperidin-1-yl)propyl]}carboxamido-5-(N-methyl)carboxamido-4-(4-nitrophenyl)pyridine] |  | 3.31 nM | Ki (α2A receptor): 3310 nM
CCNC(=O)C1=C(CC)NC(CC)=C(C(=O)NCCCN2CCC(C(=O)OC)(c3ccccc3)CC2)C1c1ccc([N+](=O)[O-])cc1 (stereo not drawn) [Example 180, 2,6-Diethyl-1,4-dihydro-5-(N-ethyl)carboxamido-3-{N-[3-(4-methoxycarbonyl-4-phenylpiperidin-1-yl)propyl]}carboxamido-4-(4-nitrophenyl)pyridine] |  | 3.63 nM | Ki (α2A receptor): 6920 nM
CCNC(=O)C1=C(CC)NC(COCCN)=C(C(=O)NCCCN2CCC(C(=O)OCC)(c3ccccc3)CC2)C1c1ccc([N+](=O)[O-])cc1 (stereo not drawn) [Example 192, 2-[(2-Aminoethoxy)methyl]-3-{N-[3-(4-ethoxycarbonyl-4-phenyl-piperidin-1-yl)propyl]}carboxamido-1,4-dihydro-6-ethyl-5-(N-ethyl)carboxamido-4-(4-nitrophenyl)pyridine] | 3720 nM | 3.09 nM | 
CCOC(=O)C1(c2ccccc2)CCN(CCCNC(=O)C2=C(COCCN)NC(CC)=C(C(N)=O)C2c2ccc([N+](=O)[O-])cc2)CC1 (stereo not drawn) [Example 193, 2-[(2-Aminoethoxy)methyl]-5-carboxamido-3-{N-[3-(4-ethoxycarbonyl-4-phenylpiperidin-1-yl)propyl]}carboxamido-1,4-dihydro-6-ethyl-4-(4-nitrophenyl)pyridine] | 1020 nM | 1.58 nM | 
CCOC(=O)C1(c2ccccc2)CCN(CCCNC(=O)C2=C(COCCN)NC(CC)=C(C(=O)NC)C2c2ccc([N+](=O)[O-])cc2)CC1 (stereo not drawn) [Example 194, 2-[(2-Aminoethoxy)methyl]-3-{N-[3-(4-ethoxycarbonyl-4-phenylpiperidin-1-yl)propyl]}carboxamido-1,4-dihydro-6-ethyl-5-(N-methyl) carboxamido-4-(4-nitrophenyl) pyridine] | 3160 nM | 3.72 nM | 
CCOC(=O)C1(c2ccccc2)CCN(CCCNC(=O)C2=C(COCCN)NC(CC)=C(C(=O)O)C2c2ccc([N+](=O)[O-])cc2)CC1 (stereo not drawn) [Example 196, 2-[(2-Aminoethoxy)methyl]-3-{N-[3-(4-ethoxycarbonyl-4-phenylpiperidin-1-yl)propyl]}carboxamido-1,4-dihydro-6-ethyl-4-(4-nitrophenyl)pyridine-5-carboxylic Acid] | 8320 nM | 38.9 nM | 
CCC1=C(C(N)=O)C(c2ccc([N+](=O)[O-])cc2)C(C(=O)NCCCN2CCC(C(=O)OC)(c3ccccc3)CC2)=C(CC)N1 (stereo not drawn) [Example 200] |  | 4.37 nM | Ki (α2A receptor): 5500 nM
CC(=O)C1=C(C)NC(COCCN)=C(C(=O)NCCCN2CCC(c3ccccc3)(c3ccccc3)CC2)C1c1ccc([N+](=O)[O-])cc1 (stereo not drawn) [Example 237, 5-Acetyl-2-((2-aminoethyl)oxy)methyl-1,4-dihydro-6-methyl-4-(4-nitro)phenyl 3-(N-(3-(4,4-diphenylpiperidin-1-yl)propyl)) carboxamidopyridine] | 794 nM |  | Ki [1, 4]: 2.63 nM
